The record followed here is patent US20230152314A1, “LIPOCALIN-2 ASSAY FOR INTESTINAL ADAPTATION” (THE JOHNS HOPKINS UNIVERSITY, priority 2020, published 2023).

“Also recorded” adds a separate entry of the source.

One experiment concerns WT SBR mice. Put plainly: I3C (AHR agonist) supplementation in SBR mice: weight gain. Format: in vivo, mouse. Conditions: WT SBR mice vs DMSO-treated control, postoperative days 3-7, p=0.04 at day 7. The text has this:
In one experiment, AHR agonists are studied in our SBR model. The purpose of this experiment is to study AHR activation via a dietary supplement, which has tremendous potential as a translational approach. Under our ACUC-approved protocol, we will perform a 75% SBR on the same four groups [n=12 mice in each group] of C57Bl/6J mice: WT, LCN2-/-, AHR-/- and AHR-/-LCN2-/-. Sham-operated WT, LCN2-/-, AHR-/- and AHR-/-LCN2-/- C57Bl/6J mice [n=12 mice in each group] will serve as controls. Mice will be randomized to receive either the AHR agonist, indole-3-carbinol […]) (Sigma, 17256, St Louis, Mo.) at a dose of 15-20 mg/kg, dissolved in DMSO, or DMSO alone mixed into the liquid diet. The rodent liquid diet containing […] will be maintained for the duration of the postoperative period. Control mice will receive DMSO only. Mice will be weighed daily. One week later, the mice will be anesthetized for tissue collection and analyses performed.

Experiment [1] relates to Proteobacteria, Bacteroidetes, Firmicutes of fecal microbiome. Put plainly: Rescue IL-22 therapy: relative abundance of fecal microbiome groups by q-PCR. It counts as in vivo, mouse. Conditions: WT SBR mice, POD 7, q-PCR. On the procedure: (§1) Rescue IL-22 Therapy for SBR WT Mice. Following a 75% SBR, WT mice were treated daily for six days via intraperitoneal injections with either 100 μL PBS as control or 100 μL PBS containing 4 μg rmIL-22 (PeproTECH, 210-22) as treatment. At post-operative day (POD) 7, intestinal tissue and cecal contents were collected after euthanasia. The relative abundance of Proteobacteria, Bacteroidetes, Firmicutes, Lactobacillus and Enterobacteriaceae of fecal microbiome and Reg3b and Reg3g genes in the intestine were assessed by q-PCR.
(§2) Quantitative real-time PCR. Gene quantification was carried out with iTap Universal SYBR Green Supermix (Bio-rad, 172-5124, Hercules, Calif., USA) on a CFX96 Touch Real-time PCR system (Bio-rad) according to the manufacturer's instructions and calculated with 2^−ΔΔCT method. Thermal cycling was performed at 95° C. for 5 min, followed by 40 cycles at 95° C. for 15 s, 60° C. 10s, 72° C. for 30 s. Primers for transcriptional levels of Lcn2, IL-6.

For experiment [2], the system named is Reg3b, Reg3g and Tnf-α genes in the intestine. Briefly: Rescue IL-22 therapy: transcriptional levels of intestinal genes by q-PCR. Format: in vivo, mouse. Conditions: WT SBR mice. The method, then: as §1
RNA Extraction and Reverse Transcription. Total RNA from tissue was extracted according to the manufacturer's instructions (QIAGEN, RNeasy Mini Kit, 74106). Genomic DNA was eliminated from RNA, and total RNA (0.5 μg) was reverse transcribed to cDNA with QuantiTect Reverse Transcription Kit according to the manufacturer's protocol (QIAGEN, 205311, Germantown, Md., USA).
as §2

Experiment [3] concerns WT SBR mice (75% SBR model of short bowel syndrome). Put plainly: Rescue IL-22 therapy for SBR WT mice: body weight and villus length. Format: in vivo, mouse. The method, then: Creation of a clinically relevant model of short bowel syndrome in the mouse. In our laboratory, we established the model previously described by Helmrath et al.^18 Briefly, the hair on the abdomen of the mouse was removed by depilatory creams, and the abdomen was scrubbed with three rounds of betadine, prior to making an incision. Through a 1.5 cm midline laparotomy, the small bowel was examined. The 75% SBR was performed by transecting 3 cm distal to the ligament of Treitz and 6 cm proximal to the cecum. The intervening proximal small bowel (approximately 18 cms) was removed. Intestinal continuity was restored with a primary end-to-end jejunoileal anastomosis using 8-0 Nylon suture. The sham operation (SHA) was performed by transecting the small bowel 6 cm proximal to the cecum and immediately creating a primary end-to-end ileoileal anastomosis. Subcutaneous closure was performed with a running absorbable 4-0 Vicryl suture. Cutaneous closure was completed by interrupted 4-0 silk sutures. All animals received 1 mL of saline subcutaneously before and immediately after procedure.
After surgery, mice were offered free access to water for the first 24 hours. Fresh rodent liquid diet was provided and body weight was measured daily. Bromodeoxyuridine (BrdU) (Invitrogen, 00-0103) was administered through intraperitoneal injection (ip) 24 hours before euthanasia. Intestinal permeability was evaluated with FITC-Dextran intestinal permeability assay as described below. Serum, intestinal issue, liver, and cecal content were collected after euthanasia.
Morphometric Analysis. The jejunum and ileum were fixed in 10% neutral buffered formalin for 24 hours. […] Villus length in jejunum and ileum was measured under light microscopy (EVOS FL Auto Imaging System). At least 30 well-oriented intact villi were counted per mouse.
Rescue IL-22 Therapy for SBR WT Mice. […] The relative abundance of Proteobacteria, Bacteroidetes, Firmicutes, Lactobacillus and Enterobacteriaceae of fecal microbiome and Reg3b and Reg3g genes in the intestine were assessed by q-PCR.

The test system of another experiment is Th22 cells. Briefly: Th22 cell differentiation with and without LCN2, IL-22 ELISA of supernatant. Format: cell-based, mouse. Conditions: rmLCN2 1 ug/mL, 5 days. On the procedure: Naïve CD4^+ T Lymphocytes Isolation and Th22 cells Differentiation. We isolated naïve CD4+ T cells as previously described by Bedoya S K et al.^22 Briefly, splenic tissue was removed from 6-week old C57BL/6J male mice and ground into a single cell suspension under a sterile hood. Red blood cells (RBC) were removed by using ammonium-chloride-potassium (ACK) lysing buffer (Quality Biological, 118-156-101, Gaithersburg, Md., USA) at RT for 3 minutes. Naïve CD4+ T cells were isolated from total splenocyte by magnetic activated cell sorting (MACS) based on positive selection using CD4 (L3T4) MicroBeads (Miltenyi Biotec, 130-117-043, Bergisch-Gladbach, Germany) according to the manufacturer's instructions. The purity of naive CD4+ T cells was more than 97%, as measured by flow cytometry.
For Th22 cell differentiation, CD4+ T cells were stimulated in complete media (RPMI 1640 with 2 mM L-glutamine, 10% FBS, […] 1-ME, 100 U/ml penicillin-streptomycin) with plate-bound anti-CD3ε (Clone 145-2C11, 1 ug/mL, BD; 550275) and soluble anti-CD28 (Clone 37.51, 2 ug/ml, BD, 553295) for 5 days under polarizing condition for Th22 cells (IL-6 20 ng/mL, IL-β 10 ng/mL, TNF-α 10 ng/mL)^23 with and without mouse recombinant (rm) LCN2 (1 ug/mL, R&D, 1857-LC-050). Cell supernatant was collected for IL-22 ELISA analysis (Invitrogen, 88-7422-22) according to the manufacturer's instructions.

[4] abbreviates: jejunum and colon, especially in the colon.
Where [5] appears, read: POD 7, compared to PBS-treated group.

As for `OCc1c[nH]c2ccccc12` [I3C, indole-3-carbinol], the “weight gain following SBR” value in the experiment on WT SBR mice is listed as “increases; also recorded: significant increase”.

On to “rmIL-22: recombinant mouse IL-22 (PeproTECH, 210-22), given intraperitoneally in PBS”, for which, in experiment [1], the “relative abundance of Bacteroidetes” value is “increased”, the “relative abundance of Firmicutes” value was “increased” and the “relative abundance of Proteobacteria” value was “decreased”. Moreover, in experiment [2] (setting [4]), the Reg3b transcriptional level result is “robust increase” and the Reg3g transcriptional level entry is given as “robust increase”. Besides, in experiment [2] (jejunum, inflammation), the “transcriptional levels of Tnf-α” value is reported as “increased”. The same molecule registered a body weight lost in experiment [3] (POD 7, 4 μg rmIL-22 ip daily for six days) of 7.5%. For the same molecule, in experiment [3] (setting [5]), the “length of villi in ileum” value is “no difference” and the “length of villi in jejunum” value is on record as “significantly longer”.

B1: LCN2: mouse recombinant (rm) LCN2 (R&D, 1857-LC-050) added to Th22 polarizing culture (protein, UniProt P11672 21-200, looked up)
Neutrophil …: QDSTQNLIPAPSLLTVPLQPDFRSDQFRGRWYVVGLAGNAVQKKTEGSFTMYSTIYELQENNSYNVTSILVRDQDQGCRYWIRTFVPSSRAGQFTLGNMHRYPQVQSYNVQVATTDYNQFAMVFFRKTSENKQYFKITLYGRTKELSPELKERFTRFAKSLGLKDDNIIFSVPTDQCIDN
As for B1, in the experiment on Th22 cells, the “levels of IL-22 protein expression from Th22 cells” value was “significantly decreased”.
